Experimental data taken from US20260109732A1, “LIPID AMINES” (ModernaTX, Inc., priority 2021, published 2026).
Where a name gives a salt, the structure may show the parent alone.

Assays:
[1] = system: HeLa cells; test: CFTR Protein Expression Assay in HeLa Cells; format: cell-based, Human; conditions: LNPs encapsulating CFTR mRNA, N=4 wells; 5 h serum-free then 24 h; immunofluorescence vs PBS control
Procedure, shortened: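 HeLa cells dosed with CFTR mRNA LNPs (70 mM NaCl final buffer matrix) in serum-free MEM for 5 h, then complete MEM for 24 h. Fixed cells immunostained with anti-CFTR monoclonal and Alexa 488 secondary, imaged confocally; CFTR intensity per cell expressed as fold-change versus PBS buffer control, N=4 wells.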

[2] = Encapsulation of mRNA nanoparticles with lipid amines using Ribogreen assay; format: physicochemical
Procedure, shortened: (§1)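 Ionizable lipid nanoparticles (IL1:DSPC:cholesterol:PEG-DMG-2K) formed by vortex mixing at pH 4, loaded with luciferase or CFTR mRNA at N:P 4.93, neutralized with TRIS pH 8.12, then modified with lipid amine SA50 at pH 7.5. Particle diameter and PDI read by DLS; mRNA encapsulation by Ribogreen assay.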

[3] = system: HeLa cells; test: Luciferase Protein Expression Assay in HeLa Cells; format: cell-based, Human; conditions: LNPs encapsulating Luciferase mRNA, 25 ng per well, N=4 wells; 5 h serum-free then 24 h; ONE-Glo
Procedure, shortened: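 HeLa cells received LNPs carrying luciferase mRNA (25 ng per well) or PBS in serum-free MEM for 5 h, then complete MEM for a further 24 h. Luciferase then read by ONE-Glo luminescence after lysis and reported as average RLU of 4 replicate wells.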

[4] = Diameter and PDI from DLS measurements of mRNA nanoparticles with lipid amines; format: physicochemical
Procedure, shortened: as §1

[5] = CFTR mRNA nanoparticle with lipid amine
[6] = Luciferase mRNA nanoparticle modified with lipid amine

Structure (SMILES)	Average fold-change in CFTR signal intensity per cell compared to buffer control ± standard deviation [1] [fold-change]	% Encapsulation (Ribogreen) [2, 5] [%]	% Encapsulation (Ribogreen) [2, 6] [%]	Average Relative Light Units ± Standard Deviation [3] [Relative Light Units]	Diameter (nm) [4, 5] [nm]	PDI [4, 5]	Diameter (nm) [4, 6] [nm]	PDI [4, 6]
CC[C@H](CC[C@@H](C)[C@H]1CC[C@H]2[C@@H]3CC=C4C[C@@H](OC(=O)N(CCCN)CCCCCCN)CC[C@]4(C)[C@H]3CC[C@]12C)C(C)C [SA84, (3S,8S,9S,10R,13R,14S,17R)-17-((2R,5R)-5-Ethyl-6-methylheptan-2-yl)-10,13-dimethyl-2,3,4,7,8,9,10,11,12,13,14,15,16,17-tetradecahydro-1H-cyclopenta[a]phenanthren-3-yl (6-aminohexyl)(3-aminopropyl)carbamate dihydrochloride]	5.0 ± 0.2	99.5	99.9	29639.9 ± 7554	82	0.13	74	0.16
CC(C)CCC[C@@H](C)[C@H]1CC[C@H]2[C@@H]3CC=C4C[C@@H](OC(=O)N(CCCCNCC(F)CN)CC(F)CN)CC[C@]4(C)[C@H]3CC[C@]12C (stereo partly drawn) [SA87, (3S,8S,9S,10R,13R,14S,17R)-10,13-dimethyl-17-((R)-6-methylheptan-2-yl)-2,3,4,7,8,9,10,11,12,13,14,15,16,17-tetradecahydro-1H-cyclopenta[a]phenanthren-3-yl (3-amino-2-fluoropropyl)(4-((3-amino-2-fluoropropyl)amino)butyl)carbamate trihydrochloride]	3.2 ± 0.1	99.5	98.2	13346.1 ± 2590.8	81.2	0.1	75	0.18
CC(C)CCC[C@@H](C)[C@H]1CC[C@H]2[C@@H]3CC=C4C[C@@H](OC(=O)N(CCCCNCC(O)CN)CC(O)CN)CC[C@]4(C)[C@H]3CC[C@]12C (stereo partly drawn) [SA88, (3S,8S,9S,10R,13R,14S,17R)-10,13-dimethyl-17-((R)-6-methylheptan-2-yl)-2,3,4,7,8,9,10,11,12,13,14,15,16,17-tetradecahydro-1H-cyclopenta[a]phenanthren-3-yl (3-amino-2-hydroxypropyl)(4-((3-amino-2-hydroxypropyl)amino)butyl)carbamate trihydrochloride]	4.5 ± 0.2	99.1	99.8	17105.3 ± 7097.3	89.4	0.19	75	0.13
CC(C)CCC[C@@H](C)[C@H]1CC[C@H]2[C@@H]3CC=C4C[C@@H](OC(=O)CCCCC(=O)N(CCCN)CCCCNCCCN)CC[C@]4(C)[C@H]3CC[C@]12C [SA89, (3S,8S,9S,10R,13R,14S,17R)-10,13-dimethyl-17-((R)-6-methylheptan-2-yl)-2,3,4,7,8,9,10,11,12,13,14,15,16,17-tetradecahydro-1H-cyclopenta[a]phenanthren-3-yl 6-((3-aminopropyl)(4-((3-aminopropyl)amino)butyl)amino)-6-oxohexanoate trihydrochloride]	3.7 ± 0.4	98.6	99.7	8209.2 ± 4138.5	86.5	0.15	77	0.16
CC[C@H](CC[C@@H](C)[C@H]1CC[C@H]2[C@@H]3CC=C4C[C@@H](OC(=O)CCCCC(=O)N(CCCN)CCCCNCCCN)CC[C@]4(C)[C@H]3CC[C@]12C)C(C)C [SA90, (3S,8S,9S,10R,13R,14S,17R)-17-((2R,5R)-5-ethyl-6-methylheptan-2-yl)-10,13-dimethyl-2,3,4,7,8,9,10,11,12,13,14,15,16,17-tetradecahydro-1H-cyclopenta[a]phenanthren-3-yl 6-((3-aminopropyl)(4-((3-aminopropyl)amino)butyl)amino)-6-oxohexanoate trihydrochloride]	4.2 ± 0.4	98.1	99.6	9337.4 ± 3055.2	84.6	0.14	76	0.19
CC(C)CCC[C@@H](C)[C@H]1CC[C@H]2[C@@H]3CC=C4C[C@@H](OC(=O)N(CCCN)CCCCCCCCCCN)CC[C@]4(C)[C@H]3CC[C@]12C [SA95, (3S,8S,9S,10R,13R,14S,17R)-10,13-Dimethyl-17-((R)-6-methylheptan-2-yl)-2,3,4,7,8,9,10,11,12,13,14,15,16,17-tetradecahydro-1H-cyclopenta[a]phenanthren-3-yl (10-aminodecyl)(3-aminopropyl)carbamate dihydrochloride]	4.2 ± 0.8	99.3	99.7	22952.2 ± 5937.7	83.6	0.14	75	0.20
CC[C@H](CC[C@@H](C)[C@H]1CC[C@H]2[C@@H]3CC=C4C[C@@H](OC(=O)N(CCCN)CCCCCCCCCCN)CC[C@]4(C)[C@H]3CC[C@]12C)C(C)C [SA96, (3S,8S,9S,10R,13R,14S,17R)-17-((2R,5R)-5-Ethyl-6-methylheptan-2-yl)-10,13-dimethyl-2,3,4,7,8,9,10,11,12,13,14,15,16,17-tetradecahydro-1H-cyclopenta[a]phenanthren-3-yl (10-aminodecyl)(3-aminopropyl)carbamate dihydrochloride]	5.2 ± 0.7	98.9	99.6	17172.8 ± 2176	82.3	0.12	71	0.15
CC(C)CCC[C@@H](C)[C@H]1CC[C@H]2[C@@H]3CC=C4C[C@@H](SSCCC(=O)N(CCCN)CCCCCCCCN)CC[C@]4(C)[C@H]3CC[C@]12C [SA97, N-(8-Aminooctyl)-N-(3-aminopropyl)-3-(((3S,8S,9S,10R,13R,14S,17R)-10,13-dimethyl-17-((R)-6-methylheptan-2-yl)-2,3,4,7,8,9,10,11,12,13,14,15,16,17-tetradecahydro-1H-cyclopenta[a]phenanthren-3-yl)disulfaneyl)propanamide dihydrochloride]	5.3 ± 1.0	98.4	98.8	13144.4 ± 4350.5	83.2	0.12	72	0.16
CC(C)CCC[C@@H](C)[C@H]1CC[C@H]2[C@@H]3CC=C4C[C@@H](OC(=O)CSSCC(=O)N(CCCN)CCCCNCCCN)CC[C@]4(C)[C@H]3CC[C@]12C [SA98, (3S,8S,9S,10R,13R,14S,17R)-10,13-dimethyl-17-((R)-6-methylheptan-2-yl)-2,3,4,7,8,9,10,11,12,13,14,15,16,17-tetradecahydro-1H-cyclopenta[a]phenanthren-3-yl 2-((2-((3-aminopropyl)(4-((3-aminopropyl)amino)butyl)amino)-2-oxoethyl)disulfaneyl)acetate trihydrochloride]	1.0 ± 0	93	97.0	80.7 ± 36.7	82.8	0.14	70	0.15
CC(C)CCC[C@@H](C)[C@H]1CC[C@H]2[C@@H]3CC=C4C[C@@H](SSCCCCC(=O)N(CCCN)CCCCCCCCN)CC[C@]4(C)[C@H]3CC[C@]12C [SA110, N-(8-Aminooctyl)-N-(3-aminopropyl)-5-(((3S,8S,9S,10R,13R,14S,17R)-10,13-dimethyl-17-((R)-6-methylheptan-2-yl)-2,3,4,7,8,9,10,11,12,13,14,15,16,17-tetradecahydro-1H-cyclopenta[a]phenanthren-3-yl)disulfaneyl)pentanamide dihydrochloride]	4.0 ± 0.2	98.8	98.8	14227 ± 2513.9	84.2	0.15	70	0.14
